{"source": "paper PMC9130233", "about": "“An inhibitor of RORγ for chronic pulmonary obstructive disease treatment” (Scientific Reports, 2022)", "key": {"hFXR": {"tested_on": "hFXR", "assay": "Nuclear receptors: functional assay, hFXR antagonism", "type": "cell-based, human", "settings": "nuclear receptors: functional assays", "excerpt": "(§1) Based on the homology of the ligand binding domains, 3 different isoforms of ROR (hRORα, hRORβ and hRORγ) are reported. Small variations in the LBD regions possibly lead to differences in competitive binding between the nuclear receptors of the ROR isoforms (Fig. 1b). Similar to the assessment of RORγ binding assay, TR-FRET binding assays were also used to assess the affinity of PCCR-1 for other ROR isoforms. […] This was reconfirmed in cellular functional assays for the selected isoforms and nuclear receptors using Gal4 DBD with luciferase reporter system from Indigo (PA, USA). […] In addition, both cellular agonist and antagonist effects as well as for enzyme activity were evaluated with a known reference compound for each target, using a radiolabeled method (Eurofins Cerep, France, Table 1)."}, "RORα": {"tested_on": "T1, RORα", "T1 construct": "purchased Invitrogen", "assay": "TR-FRET selectivity binding assay, RORα", "parameters": "species or system human", "excerpt": "as §1\n(§2) For selectivity, the ROR isoforms RORα, FXR, LXRα, LXRβ, RXR, RARα were incubated with compound for 60 min at 22 °C followed by detection mix containing respective agonist (All trans retinoic acid for RARα, T0901317 for LXRα, LXRβ, 9-cis Retinoic acid for RXR, GW-4064 for FXR) and coactivator peptide (FD22 for RORα, PGC1α for RXR, RARα, TRAP220 for LXRα, LXRβ, SRC2-2 for FXR) and Tb-anti GST antibody prepared in assay buffer were added into a 384-well white plate. Reading taken after overnight incubation and the data analysis done as per the protocol mentioned in RORγt-LBD and co-activator ligand binding assay."}, "RARα": {"tested_on": "T2, RARα", "T2 construct": "purchased Invitrogen", "assay": "TR-FRET selectivity binding assay, RARα", "excerpt": "as §1, §2"}, "NK3": {"tested_on": "T3, NK3", "T3 construct": "Eurofins Cerep", "assay": "Cerep panel, NK3", "excerpt": "as §1"}, "[1]": {"tested_on": "IL-17A release in canine PBMC", "assay": "IL-17A release, canine PBMC, anti-CD3 + anti-CD28", "type": "cell-based", "settings": "Canis lupus familiaris, anti-CD3 + anti-CD28, n = 6, read-out: Cellular activity: Canine IC50, IL-17A release", "description": "Inhibition of RORγ by PCCR-1 was also estimated in a functional assay by measuring the inhibition of Th17 dependent cytokine IL-17A release in human peripheral blood mononuclear cells (PBMCs), mouse splenocytes and canine PBMC stimulated with their respective anti-CD3 and anti-CD28 antibodies.\nCanine PBMCs were procured from Lonza (Cologue, Germany). Frozen canine PBMCs was quickly thawed in a 37 °C water bath and cells were seeded in 96-well plates coated with canine anti-CD3mAb (30 µg/mL). Cells were further treated with the compound similar to human PBMC with co-stimulation of canine anti-CD28 mAb (10 µg/mL). After 72 h of incubation the supernatant was collected for estimating canine IL-17 by ELISA."}, "LXRα": {"tested_on": "T4, LXRα", "T4 construct": "purchased Invitrogen", "assay": "TR-FRET selectivity binding assay, LXRα", "excerpt": "as §1, §2"}, "[2]": {"tested_on": "IL-17F cytokine from human PBMC", "assay": "IL-17F inhibition, human PBMC", "type": "cell-based", "settings": "hPBMC, read-out: potency, IL-17F levels"}, "[3]": {"tested_on": "RORγt and IL-17A mRNA in human PBMC", "assay": "RT-PCR mRNA expression in TCR stimulated human PBMC", "type": "cell-based", "settings": "PCCR-1 treated PBMCs, healthy subjects", "description": "For RT-PCR from human PBMC, 5X 10^6 PBMCs were seeded in 6well pre-coated human anti-CD3 mAb (10 µg/mL) plate, post 30 min of compound treatment cells were stimulated with human anti-CD28 mAb (2 µg/mL). After 48 h cells were pelleted, washed with PBS and total RNA was extracted using TRI reagent. 3 µg of DNase treated RNA was reverse transcribed using iScript select cDNA synthesis kit (Biorad Hercules, CA, USA) to produce single-stranded cDNA. RT-PCR was performed with an real-time thermal cycler Eppendorf Mastercycler Ep (Eppendorf AG, Hamburg, Germany) using iTaq SYBR Green Supermix with ROX kit (Biorad Hercules, CA, USA) with human IL-17A specific primers: 5’- […]-3’(sense primer) and 5'-[…]-3' (antisense primer) and human RORγt specific primers: 5’-[…]-3’ (sense primer) and 5’-[…]-3’ (antisense primer). RT-PCR reaction was carried out for 40 cycles at 95 °C for 15 s, 60 °C for 15 s and 60 °C for 40 s. Data was interpreted using 2(-∆CT) Livak method of analysis."}, "human RORγ LBD": {"biological_target": "T5, human RORγ LBD (Homo sapiens, UniProt P51449)", "T5 construct": "RORC-LBD region 229-497aa; made in house; host or cells: Escherichia coli BL21-DE3", "T5 sequence (P51449 250-518)": "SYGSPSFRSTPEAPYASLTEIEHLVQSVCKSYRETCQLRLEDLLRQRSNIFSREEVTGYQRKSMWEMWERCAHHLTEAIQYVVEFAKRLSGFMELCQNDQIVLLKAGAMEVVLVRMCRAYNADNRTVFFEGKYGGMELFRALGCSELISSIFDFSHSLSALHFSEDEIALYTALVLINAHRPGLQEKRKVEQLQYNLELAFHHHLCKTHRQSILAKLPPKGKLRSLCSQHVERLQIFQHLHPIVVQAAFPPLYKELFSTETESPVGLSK", "assay": "RORγt-LBD co-activator ligand binding TR-FRET assay, human", "settings": "n = 15", "excerpt": "To identify small molecule RORγ inhibitors, we conducted in vitro screening using a TR-FRET binding assay to determine the inhibition of RORγ with a series of different compounds. With extensive effort and from hit identification to lead optimization, PCCR-1 was identified[29] (Fig. 1A). Based on the homology of the ligand binding domains (LBD) between different ROR isoforms (hRORα, hRORβ and hRORγ), slight variations have been observed in the LBD regions which possibly lead to differences in competitive binding between the isoforms (Fig. 1B). Simultaneous binding of a tracer and antibody results in an increase in fluorescence resonance energy transfer (FRET), which decreases with displacement of the tracer upon inhibitor binding.\nThe human and mouse RORγt cDNA clones were obtained from OriGene (MD USA). […] The next day, plate was read on Infinite F500 reader (Magellan Tecan Switzerland). […] The percent activity of each dilution was determined as the ratio of background corrected signal to the background corrected signal of wells receiving only DMSO. IC50 values were determined by fitting percent inhibition data in GraphPad Prism (version-5.01) software."}}, "data": [{"smiles": "CCn1c(C(C)(C)Oc2ccc(F)cc2F)nc2cc(NC(=O)Cc3ccc(S(=O)(=O)CC)cc3)ccc21", "note": "[PCCR-1]", "values": [{"measurement": "hFXR (antagonism)", "setting": "hFXR", "result": "~10", "unit": "µM"}, {"measurement": "% Inhibition RORα", "setting": "RORα; 1 µM", "result": 20.91, "unit": "%"}, {"measurement": "% Inhibition RORα", "setting": "RORα; 10 µM", "result": 19.82, "unit": "%"}, {"measurement": "Fold over hRORγ, RORα", "setting": "RORα; vs RORg IC50 31.87 nM", "result": "> 313.7", "unit": "fold"}, {"measurement": "% Inhibition RARα", "setting": "RARα; 1 µM", "result": 0.00, "unit": "%"}, {"measurement": "% Inhibition RARα", "setting": "RARα; 10 µM", "result": 0.00, "unit": "%"}, {"measurement": "Fold over hRORγ, RARα", "setting": "RARα; vs RORg IC50 31.87 nM", "result": "> 313.7", "unit": "fold"}, {"measurement": "% inhibition at 10 µM NK3", "setting": "NK3", "result": 56, "unit": "%"}, {"measurement": "IC50", "setting": "[1]", "result": 504, "unit": "nM"}, {"measurement": "% Inhibition LXRα", "setting": "LXRα; 1 µM", "result": 11.38, "unit": "%"}, {"measurement": "% Inhibition LXRα", "setting": "LXRα; 10 µM", "result": 30.37, "unit": "%"}, {"measurement": "Fold over hRORγ, LXRα", "setting": "LXRα; vs RORg IC50 31.87 nM", "result": "> 313.7", "unit": "fold"}, {"measurement": "IC50", "setting": "[2]", "result": 788, "unit": "nM"}, {"measurement": "IL-17A mRNA expression", "setting": "[3]", "result": "significantly inhibited"}, {"measurement": "RORγt mRNA expression", "setting": "[3]", "result": "downregulation"}, {"measurement": "IC50", "setting": "human RORγ LBD", "result": 34.5, "unit": "nM"}]}]}
